The text below walks through data of patent publication US20260055079A1, “PHTHALAZINONE COMPOUNDS AS PARP7 INHIBITORS” (AZKARRA THERAPEUTICS, INC., priority 2022, published 2026).

For this experiment, the target named is His-GST-PARP7 (Homo sapiens (Human), UniProt Q7Z3E1). Nature of the experiment: PARP7 biochemical assay. Conditions: read-out: PARP7 IC50.
Sequence of His-GST-PARP7 (Q7Z3E1 whole entry): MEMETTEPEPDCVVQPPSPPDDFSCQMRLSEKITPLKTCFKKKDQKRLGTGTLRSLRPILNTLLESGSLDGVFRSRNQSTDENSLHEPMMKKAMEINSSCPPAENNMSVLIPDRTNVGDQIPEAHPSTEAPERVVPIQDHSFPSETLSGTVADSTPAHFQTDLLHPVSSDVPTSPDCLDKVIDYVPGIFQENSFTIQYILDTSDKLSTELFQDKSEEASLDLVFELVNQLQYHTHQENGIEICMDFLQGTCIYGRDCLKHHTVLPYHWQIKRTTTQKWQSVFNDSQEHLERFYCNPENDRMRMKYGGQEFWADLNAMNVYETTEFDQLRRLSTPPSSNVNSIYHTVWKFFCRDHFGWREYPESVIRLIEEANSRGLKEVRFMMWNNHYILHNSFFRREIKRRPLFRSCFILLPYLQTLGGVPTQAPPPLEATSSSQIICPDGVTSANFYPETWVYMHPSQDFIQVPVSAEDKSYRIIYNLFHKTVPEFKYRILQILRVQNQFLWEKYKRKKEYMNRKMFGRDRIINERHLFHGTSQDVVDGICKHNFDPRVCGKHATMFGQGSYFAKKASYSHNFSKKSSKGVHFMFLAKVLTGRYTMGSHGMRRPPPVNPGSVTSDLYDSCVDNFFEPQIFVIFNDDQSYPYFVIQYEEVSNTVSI
Consider `O=C(c1cc(Cc2n[nH]c(=O)c3ccc(OC4CCC4)cc23)ccc1F)N1CC2CN(C(=O)C3CC3)CC2C1` (centres unmarked) [Example 119, 6-Cyclobutoxy-4-(3-(5-(cyclopropanecarbonyl)octahydropyrrolo[3,4-c]pyrrole-2-carbonyl)-4-fluorobenzyl)phthalazin-1(2H)-one], for which the IC50 fell in the range of 500 to 2000 nM.
The result for “4-(4-Fluoro-3-(4-(5-(trifluoromethyl)pyrimidin-2-yl)piperazine-1-carbonyl)benzyl)-6-(3,3,3-trifluoroprop-1-yn-1-yl)phthalazin-1(2H)-one [Example 42]” reads 500 to 2000 nM.
As for `CN(c1cncc(C#N)n1)C1CN(C(=O)c2cc(Cc3n[nH]c(=O)c4ccc(OC5CCC5)cc34)ccc2F)C1` [Example 116, 6-((1-(5-((7-Cyclobutoxy-4-oxo-3,4-dihydrophthalazin-1-yl)methyl)-2-fluorobenzoyl)azetidin-3-yl)(methyl)amino)pyrazine-2-carbonitrile], the figure is 100 to 500 nM.
As for `O=c1[nH]nc(Cc2ccc3c(N4CCN(c5ncc(C(F)(F)F)cn5)CC4)noc3c2)c2cc(OC3CCC3)ccc12` [Example 212, 6-Cyclobutoxy-4-((3-(4-(5-(trifluoromethyl)pyrimidin-2-yl)piperazin-1-yl)benzo[d]isoxazol-6-yl)methyl)phthalazin-1(2H)-one], the figure is above 2000 nM.
As to `N#Cc1ccc(N2C[C@H]3CC[C@@H](C2)N3C(=O)c2cc(Cc3n[nH]c(=O)c4ccc(OC5CCC5)cc34)ccc2F)nc1` [Example 96, 6-(8-(5-((7-Cyclobutoxy-4-oxo-3,4-dihydrophthalazin-1-yl)methyl)-2-fluorobenzoyl)-3,8-diazabicyclo[3.2.1]octan-3-yl)nicotinonitrile], the IC50 was below 50 nM.
In the case of `O=C(c1cccc(Cc2n[nH]c(=O)c3ccc(OC4CCC4)cc23)c1)N1CCN(c2ncc(C(F)(F)F)cn2)CC1` [Example 170, 6-cyclobutoxy-4-(3-(4-(5-(trifluoromethyl)pyrimidin-2-yl)piperazine-1-carbonyl)benzyl)phthalazin-1(2H)-one], the IC50 was below 50 nM.
Consider `CC#Cc1ccc2c(=O)[nH]nc(C(C)CCCC(=O)N3CCN(c4ncc(C(F)(F)F)cn4)CC3)c2c1` (centres unmarked) [Example 195, 4-(6-Oxo-6-(4-(5-(trifluoromethyl)pyrimidin-2-yl)piperazin-1-yl)hexan-2-yl)-6-(prop-1-yn-1-yl)phthalazin-1(2H)-one], for which the IC50 was below 50 nM.
On to `CC#Cc1ccc2c(=O)[nH]nc(Cc3ccc(F)c(C(=O)N4CCN(c5ncc(C(F)(F)F)cn5)CC4)c3)c2c1` [Example 48, 4-(4-Fluoro-3-(4-(5-(trifluoromethyl)pyrimidin-2-yl)piperazine-1-carbonyl)benzyl)-6-(prop-1-yn-1-yl)phthalazin-1(2H)-one], for which the IC50 fell in the range of 100 to 500 nM.
For the compound `O=C(c1cc(Cc2n[nH]c(=O)c3ccc(OC4CCC4)cc23)ccc1F)N1[C@@H]2CC[C@H]1CN(c1ncc(C(F)(F)F)cn1)C2` [Example 97, 6-cyclobutoxy-4-(4-fluoro-3-(3-(5-(trifluoromethyl)pyrimidin-2-yl)-3,8-diazabicyclo[3.2.1]octane-8-carbonyl)benzyl)phthalazin-1(2H)-one], the half-maximal inhibitory concentration (IC50) is below 50 nM.
With `O=C(c1cc(Cc2n[nH]c(=O)c3ccc(OC4CCC4)cc23)ccc1F)N1C[C@H]2CC[C@@H](C1)N2c1ncc(C(F)(F)F)cn1` [Example 100, 6-Cyclobutoxy-4-(4-fluoro-3-(8-(5-(trifluoromethyl)pyrimidin-2-yl)-3,8-diazabicyclo[3.2.1]octane-3-carbonyl)benzyl)phthalazin-1(2H)-one], the IC50 was below 50 nM.
For `Cc1cccc(Oc2ccc3c(=O)[nH]nc(Cc4ccc(F)c(C(=O)N5CCN(c6ccc(C#N)cn6)CC5)c4)c3c2)c1` [Example 90, 6-(4-(2-fluoro-5-((4-oxo-7-(m-tolyloxy)-3,4-dihydrophthalazin-1-yl)methyl)benzoyl)piperazin-1-yl)nicotinonitrile], the IC50 was below 50 nM.

For orientation: IC50 means the point on the concentration scale where inhibition reaches its midpoint.
